Data taken from patent publication US20050288323A1, “Octahydro-indolizine and quinolizine and hexahydro-pyrrolizine” (priority 2000, published 2005).

Target: T1, human histamine H3 receptor (Homo sapiens, UniProt Q9Y5N1)
T1 construct: One microgram of supercoiled H3 receptor cDNA was added to the cells and mixed; expressed in transfected cells; membranes
Experiment: [3H]-N-methylhistamine binding
Details: Table 1; [3H]-N-methylhistamine binding
Method: Thus in the present invention receptor binding was determined using the human histamine H3 receptor (See Lovenberg et al Mol. Pharmacol. 1999, 1107). Screening using the human receptor is particularly important for the identification of new therapies for the treatment of human disease. Conventional binding assays for example are determined using rat synaptosomes (Garbarg et al J. Pharmacol. Exp. Ther. 1992, 263, 304), rat cortical membranes (West et al Mol. Pharmacol. 1990, 610), and guinea pig brain (Korte et al Biochem. Biophys. Res. Commun. 1990, 978). Only limited studies have been performed previously using human tissue but these allude to significant differences in the pharmacology of rodent and primate receptors (West et al Eur. J. Pharmacol. 1999, 233).
Transfection of Cells with Human Histamine Receptor
A 10 cm tissue culture dish with a confluent monolayer of SK-N-MC cells was split two days prior to transfection. Using sterile technique the media was removed and the cells were detached from the dish by the addition of trypsin. One fifth of the cells were then placed onto a new 10 cm dish. Cells were grown in a 37° C. incubator with 5% CO2 in Minimal Essential Media Eagle with 10% Fetal Bovine Serum. After two days cells were approximately 80% confluent. These were removed from the dish with trypsin and pelleted in a clinical centrifuge. The pellet was then re-suspended in 400 μL complete media and transferred to an electroporation cuvette with a 0.4 cm gap between the electrodes (Bio-Rad #165-2088). One microgram of supercoiled H3 receptor cDNA was added to the cells and mixed. The voltage for the electroporation was set at 0.25 kV, the capacitance was set at 960 μF. After electroporation the cells were diluted into 10 mL complete media and plated onto four 10 cm dishes. Because of the variability in the efficiency of electroporation, four different concentrations of cells were plated. The ratios used were; 1:20, 1:10, 1:5, with the remainder of the cells being added to the fourth dish. The cells were allowed to recover for 24 hours before adding the selection media (complete media with 600 μg/mL G418). After 10 days dishes were analyzed for surviving colonies of cells. Dishes with well isolated colonies were used. Cells from individual colonies were isolated and tested. SK-N-MC cells were used because they give efficient coupling for inhibition of adenylate cyclase. The clones that gave the most robust inhibition of adenylate cyclase in response to histamine were used for further study.
[^3H]-N-methylhistamine Binding
Cell pellets from histamine H3 receptor-expressing SK-N-MC cells were homogenized in 20 mM TrisHCl/0.5 mM EDTA. Supernatants from a 800 g spin were collected, recentrifuged at 30,000 g for 30 minutes. Pellets were re-homogenized in 50 mM Tris/5 mM EDTA (pH 7.4). Membranes were incubated with 0.8 nM [^3H]-N-methylhistamine plus/minus test compounds for 45 min at 25° C. and harvested by rapid filtration over GF/C glass fiber filters (pretreated with 0.3% polyethylenimine) followed by four washes with ice cold buffer. Filters were dried, added to 4 mL scintillation cocktail and then counted on a liquid scintillation counter. Non-specific binding was defined with 10 μM histamine. The pKi values were calculated based on a Kd of 800 pM and a ligand concentration ([L]) of 800 pM according to the formula: Ki=(IC50)/(1+([L]/(Kd))

T1 sequence (Q9Y5N1 whole entry): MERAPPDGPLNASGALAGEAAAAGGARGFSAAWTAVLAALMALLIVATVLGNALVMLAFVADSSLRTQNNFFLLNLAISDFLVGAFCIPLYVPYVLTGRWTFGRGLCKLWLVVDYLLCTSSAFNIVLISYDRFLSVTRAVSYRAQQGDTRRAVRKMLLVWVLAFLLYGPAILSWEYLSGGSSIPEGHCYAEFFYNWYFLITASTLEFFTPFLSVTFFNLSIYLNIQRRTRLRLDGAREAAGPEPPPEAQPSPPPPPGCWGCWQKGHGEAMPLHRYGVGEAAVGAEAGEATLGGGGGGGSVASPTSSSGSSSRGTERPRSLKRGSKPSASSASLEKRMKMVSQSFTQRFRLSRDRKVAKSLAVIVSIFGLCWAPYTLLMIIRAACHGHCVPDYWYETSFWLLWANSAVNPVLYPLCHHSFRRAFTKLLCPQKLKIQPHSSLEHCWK

| Ki | Molecule |
| --- | --- |
| 400 nM | c1ccc(Oc2ccc([C@H]3CC[C@H]4CCCCN43)cc2)cc1 (racemic) [Example 11] |
| 10 nM | CN(C)CCCOc1ccc([C@H]2CC[C@H]3CCCCN32)cc1 (racemic) [Example 17, Dimethyl-{3-[4-(octahydro-indolizin-3-yl)-phenoxy]-propyl}-amine] |
| 600 nM | c1ccc(Oc2ccc([C@@H]3CC[C@H]4CCCCN43)cc2)cc1 (racemic) [Example 12] |

| Molecule | Ki |
| --- | --- |
| Brc1ccc([C@@H]2CC[C@H]3CCCCN32)cc1 (racemic) [Example 2] | 1000 nM |

Same assay, conditions: Table 2; [3H]-N-methylhistamine binding

| Molecule | Ki |
| --- | --- |
| c1cncc(Oc2ccc([C@H]3CC[C@H]4CCCCN43)cc2)c1 (racemic) [Example 29] | 150 nM |

Same assay, conditions: Table 5; [3H]-N-methylhistamine binding

| Molecule | Ki |
| --- | --- |
| c1cncc(CNc2ccc([C@H]3CC[C@H]4CCCCN43)cc2)c1 (racemic) [Example 127] | 589 nM |
| c1c[nH]c(CNc2ccc([C@H]3CC[C@H]4CCCCN43)cc2)n1 (racemic) [Example 134] | 3640 nM |
| c1ccc(CNc2ccc([C@H]3CC[C@H]4CCCCN43)cc2)nc1 (racemic) [Example 128] | 1340 nM |
| c1ccc(CN(Cc2ccccc2)c2ccc([C@H]3CC[C@H]4CCCCN43)cc2)cc1 (racemic) [Example 135] | 3950 nM |
| c1cc(CNc2ccc([C@H]3CC[C@H]4CCCCN43)cc2)ccn1 (racemic) [Example 131] | 511 nM |

Same assay, conditions: [3H]-N-methylhistamine 0.8 nM, membranes of H3 receptor-expressing SK-N-MC cells

| Molecule | Ki |
| --- | --- |
| c1cc(Sc2ccc(C3CCC4CCCCN43)cc2)ccn1 (stereo not shown) [Example 136, Octahydro-3-[4-(4-pyridinylthio)phenyl]indolizine] | 7.5 nM |
| CN(CCCCCN1CCCCC1)c1ccc([C@@H]2CC[C@@H]3CCCCN32)cc1 (relative stereo) [Example 114, trans-3-[4-(N-Methyl-N-5-piperidylpentylamino)phenyl]octahydroindolizine] | 9 nM |
| CN(C)CCNc1cccc([C@H]2CC[C@H]3CCCCN32)c1 (racemic) [Example 56, tran-3-[4-(3-(2-Dimethylaminoethyl)amino)phenyl]octahydroindolizine] | 75 nM |
| CC(C)(C)OC(=O)N1CCCCC1CCOc1ccc([C@H]2CC[C@H]3CCCCN32)cc1 (mixture of isomers) [Example 85, trans-3-{4-[2,2′-(1-tert-Butylcarboxylatepiperidinyl)ethoxy]phenyl}-octahydroindolizine] | 51 nM |
| OC(c1ccncc1)c1ccc([C@H]2CC[C@H]3CCCCN32)cc1 (stereo partly drawn) [Example 24, trans-3-[4-(4-Pyridylmethan-1-ol)phenyl]octahydroindolizine] | 82 nM |
| N-Methyl-N-[4-(trans-Octahydro-3-indolizinyl)phenyl]-3-piperidinylpropenamide [Example 109] | 1 nM |
| C(=C\c1ccc([C@H]2CC[C@H]3CCCCN32)cc1)/c1ccncc1 (racemic) [Example 73, trans-3-[4-(4-Pyridinylethenyl)phenyl]octahydroindolizine] | 65 nM |
| c1ccc([C@H]2C[C@@H]3CCCCN3C2)c(OCCCN2CCCCC2)c1 (relative stereo) [Example 71, anti-2-[2-(3-Piperidinylpropoxy)phenyl]octahydroindolizine] | 315 nM |
| O=C(CCCCN1CCCCC1)Nc1ccc([C@@H]2CC[C@@H]3CCCCN32)cc1 (relative stereo) [Example 112, trans-3-[4-(N-5-Piperidylpentanamido)phenyl]octahydroindolizine] | 2.1 nM |
| c1cc(Sc2ccc(C3CCCC4CCCCN43)cc2)ccn1 (stereo not shown) [Example 25, 4-[4-(4-Pyridylthio)phenyl]octahydoquinolizine] | 305 nM |
| O=C(CCN1CCCCC1)Nc1ccc([C@@H]2CC[C@@H]3CCCCN32)cc1 (relative stereo) [Example 105, trans-3-[4-(N-3-Piperidinylpropanamido)phenyl]octahydroindolizine] | 10 nM |
| trans-3-{4-[(2-Pyrrolidylethyl)sulfonylamino]phenyl}octahydroindolizine [Example 122] | 534 nM |
| c1cc(Oc2ccc([C@H]3CC[C@H]4CCCCN43)cc2)ccn1 (racemic) [Example 76, trans-3-[4-(4-Pyridyloxy)phenyl]octahydroindolizine] | 77 nM |
| c1cc(Sc2ccc([C@H]3CC[C@H]4CCCCN43)cc2)ccn1 [Example 137, (R, R)-Octahydro-3-[4-(4-pyridinylthio)phenyl]indolizine] | 3.8 nM |
| Nc1ccc([C@@H]2CC[C@@H]3CCCCN32)cc1 (relative stereo) [Example 95, trans-3-(4-Aminophenyl)octahydroindolizine] | 32 nM |

Second part, the molecule after the results:

| Ki | Molecule |
| --- | --- |
| 9 nM | NCc1ccc(Sc2ccc([C@H]3CC[C@H]4CCCCN43)cc2)cc1 (racemic) [Example 44] |
| 75 nM | CS(=O)(=O)Nc1ccc(Sc2ccc([C@@H]3CCC[C@@H]4CCCN43)cc2)cc1 (racemic) [Example 41, 5-[4-(4-Methanesulfonaminophenylthio)phenyl]octahydroindolizine] |
| 1220 nM | FC(F)(F)Oc1ccc(-c2ccc([C@H]3CC[C@H]4CCCCN43)cc2)cc1 (relative stereo) [Example 47, trans-3-[4-(4-Trifluromethoxyphenyl)phenyl]octahydroindolizine] |
| 46 nM | CS(=O)(=O)Nc1ccc(Oc2ccc([C@H]3CC[C@H]4CCCCN43)cc2)cc1 (racemic) [Example 79, trans-3-[4-(4-Methansulfonaminophenoxy)phenyl]octahydroindolizine] |
| 7 nM | CN1CCCCC1CCOc1ccc([C@H]2CC[C@H]3CCCCN32)cc1 (mixture of isomers) [Example 87, trans-3-{4-[2,2′-(N-Methylpiperidinyl)ethoxy]phenyl}octahydroindolizine] |
| 0.06 nM | c1cc([C@H]2CC[C@H]3CCCCN32)ccc1OCCCN1CCCCC1 [Example 93, (R, R)-3-(4-(3-Piperidinylpropoxy)phenyl)octahydroindolizine] |
| 655 nM | Clc1ccc(Cc2ccc([C@H]3CC[C@H]4CCCCN43)cc2)cc1 (racemic) [Example 125] |
| 2770 nM | C=CC(=O)N(C)c1ccc([C@@H]2CC[C@@H]3CCCCN32)cc1 (relative stereo) [Example 108, N-Methyl-N-[4-(trans-Octahydro-3-indolizinyl)phenyl]propenamide] |
| 481 nM | CS(=O)(=O)Nc1ccc([C@@H]2CC[C@@H]3CCCCN32)cc1 (relative stereo) [Example 97, trans-3-(4-(Methylsulfonylamino)phenyl)octahydroindolizine] |
| 0.6 nM | c1cc(C2CCC3CCCN32)ccc1OCCCN1CCCCC1 (stereo not shown) [Example 140, 3-[4-(Piperidinylpropoxy)phenyl]hexahydro-1H-pyrrolizine] |
| 173 nM | c1csc(-c2ccc([C@H]3CC[C@H]4CCCCN43)cc2)c1 (racemic) [Example 50, 3-(4-Thiophen-2-yl-phenyl)-octahydro-indolizine] |
| 9.5 nM | CN(C)CCCOc1ccc([C@H]2CC[C@H]3CCCCN32)cc1 (racemic) [Example 17, Dimethyl-{3-[4-(octahydro-indolizin-3-yl)-phenoxy]-propyl}-amine] |
| 75 nM | Nc1ccc(Sc2ccc([C@@H]3CCC[C@@H]4CCCN43)cc2)cc1 (racemic) [Example 39, 5-(4-(4-Aminophenylthio)phenyl)octahydroindolizine] |
| 0.06 nM | c1cc([C@@H]2CC[C@@H]3CCCCN32)ccc1OCCCN1CCCCC1 [Example 94, (S, S)-3-(4-(3-Piperidinylpropoxy)phenyl)octahydroindolizine] |

System: not given
Experiment: not given
Details: not given

| melting point | Molecule |
| --- | --- |
| 195 to 198 °C | Brc1cccc([C@H]2CC[C@H]3CCCCN32)c1 (racemic) |
